Key:
EGFR (L858R) = target: T1, EGFR (L858R) (Homo sapiens, UniProt P00533, L858R); assay: Inhibitory action on tyrosine kinase activity of mutant EGFR (L858R), Caliper; assay type: biochemical; conditions: kinase 9 nM, ATP 111 μM, polypeptide 3 μM, 60 min
T1 construct: purchased Invitrogen Corporation PR7447A
Description: EGFR(L858R): Invitrogen Corporation, catalogue No. PR7447A
(§1) P22(polypeptide substrate): GL Biochem Ltd., catalogue No. 112393
(§2) 3.2 Formulation of Kinase Buffer: 50 mM HEPES, pH 7.5, 0.0015% Brij-35, 10 mM MgCl2, and 2 mM DTT(dithiothreitol).
(§3) 3.3 Formulation of Termination Solution: 100 mM HEPES, pH 7.5, 0.015% Brij-35, 0.2% Coating Reagent #3 (prepared by Caliper workstation), and 50 mM EDTA (ethylene diamine tetraacetic acid).
(§4) 3.4.1 Formulation of a 50-fold concentration of a compound: for example, if the final concentration of the compound for assay is 12.5 nM, 50-fold concentration is 625 nM. The 50-fold concentration of the compound working solution was subjected to a 4-fold dilution with DMSO in a 96-well plate to obtain seven diluted concentrations in total.
(§5) 3.4.2 Transferring the 5-fold concentration of compound to a reaction plate: 10 μl solution was transferred from each well of the above-mentioned 96-well plate to another 96-well plate, and then 90 μl kinase buffer was added. 5 μl solution was transferred from the above 96-well plate to a 384-well reaction plate. […]
(§6) 3.6 The substrate conversion rate data was read with Caliper. […]
(§7) Inhibition rate %=(max-conversion rate)/(max-min)x100%, wherein max refers to the conversion rate of the DMSO control, min refers to the conversion of enzyme-free control. IC50 values were determined by the inhibition curve.

EGFR (L858R/T790M) = target: T2, EGFR (L858R/T790M) (Homo sapiens, UniProt P00533, L858R/T790M); assay: Inhibitory action on tyrosine kinase activity of mutant EGFR (L858R/T790M), Caliper; assay type: biochemical; conditions: kinase 10 nM, ATP 19 μM, polypeptide 3 μM, 60 min
T2 construct: purchased Invitrogen Corporation PR8911A
T2 sequence (P00533 25-1210 T790M/L858R): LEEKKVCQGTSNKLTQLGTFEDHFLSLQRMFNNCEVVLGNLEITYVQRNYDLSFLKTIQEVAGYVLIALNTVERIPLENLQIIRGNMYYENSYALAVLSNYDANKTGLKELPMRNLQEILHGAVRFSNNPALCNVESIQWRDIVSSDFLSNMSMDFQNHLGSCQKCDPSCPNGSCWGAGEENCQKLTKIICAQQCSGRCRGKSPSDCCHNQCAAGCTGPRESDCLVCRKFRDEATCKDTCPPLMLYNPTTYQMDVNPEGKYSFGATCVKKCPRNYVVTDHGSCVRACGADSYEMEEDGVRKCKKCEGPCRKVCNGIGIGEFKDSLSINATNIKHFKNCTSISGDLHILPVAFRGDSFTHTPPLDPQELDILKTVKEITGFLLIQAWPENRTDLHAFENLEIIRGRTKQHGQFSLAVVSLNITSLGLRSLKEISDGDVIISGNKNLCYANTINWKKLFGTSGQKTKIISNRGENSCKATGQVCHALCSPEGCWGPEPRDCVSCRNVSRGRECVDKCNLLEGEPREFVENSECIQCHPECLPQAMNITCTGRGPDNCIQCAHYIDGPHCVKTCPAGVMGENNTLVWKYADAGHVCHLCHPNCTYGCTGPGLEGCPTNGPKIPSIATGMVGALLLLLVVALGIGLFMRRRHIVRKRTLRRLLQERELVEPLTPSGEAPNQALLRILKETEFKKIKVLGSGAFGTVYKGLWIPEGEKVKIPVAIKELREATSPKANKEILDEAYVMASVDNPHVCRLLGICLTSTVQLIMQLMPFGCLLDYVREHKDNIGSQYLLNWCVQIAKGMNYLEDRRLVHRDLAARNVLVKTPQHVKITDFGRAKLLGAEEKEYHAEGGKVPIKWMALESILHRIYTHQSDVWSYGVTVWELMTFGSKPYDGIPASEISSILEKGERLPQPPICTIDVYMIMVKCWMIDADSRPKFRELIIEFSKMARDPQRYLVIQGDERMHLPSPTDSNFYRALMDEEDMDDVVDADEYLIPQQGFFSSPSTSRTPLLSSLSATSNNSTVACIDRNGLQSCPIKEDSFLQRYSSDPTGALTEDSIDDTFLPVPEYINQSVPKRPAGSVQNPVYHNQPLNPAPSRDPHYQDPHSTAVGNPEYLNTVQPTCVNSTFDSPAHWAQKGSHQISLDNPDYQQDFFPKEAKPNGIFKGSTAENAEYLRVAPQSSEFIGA
Description: EGFR(L858R/T790M): Invitrogen Corporation, catalogue No. PR8911A
as §1, §2, §3, §4, §5, §6, §7

[1] = system: salmonella typhimurium TA97, TA98, TA100, TA1535, and TA102; conditions: with or without S9; for mutagenicity on TA102 strain: doses of less than and equal to 150 μg/plate; for mutagenicity on TA97 strain: doses of less than and equal to 500 μg/plate; for mutagenicity on TA98, TA100 and TA1535 strains: doses of less than and equal to 1500 μg/plate
Description: Direct mutagen 1: Dexon (Dima Technology Inc.; Batch No.: 456-2D)
Indirect mutagen: 2-aminoanthracene, 2-AA (Sigma-Aldrich Inc.; Batch No.: STBB1901V)
Strains: histidine auxotrophic mutants of salmonella typhimurium TA97, TA98, TA100, TA1535, and TA102 (Institute of Laboratory Animal Science, Chinese Academy of Medical Sciences) are cryopreserved in liquid nitrogen.
Bacteria suspension cryopreserved in liquid nitrogen was quickly thawed in a 37° C. water bath. 100 μL bacteria suspension was withdrawn and seeded into 20 mL nutrient broth. After static culture in the dark at 37° C. for 16 h, the bacteria suspension was taken for mutagenicity assay.
The solution was filtered through a 0.22 μm filter membrane. 1.0 mL initial filtrate was discarded during filtrating. Then the filtrated test sample solution (15 mg/mL) was gradiently diluted with DMSO to solutions having the concentrations of 5, 1.5, 0.5 and 0.15 mg/mL.
The solution was filtered through a 0.22 μm filter membrane, 1.0 mL initial filtrate was discarded during filtrating. Then the filtrated test sample solution (15 mg/mL) was gradiently diluted with sterile water for injection to solutions having the concentrations of 5, 1.5, 0.5 and 0.15 mg/mL.
Dexon: an appropriate amount of Dexon was weighed and dissolved in sterile water for injection to obtain a solution with a concentration of 250 μg/mL. The solution was used after being filtered through 0.22 μm sterile filter membrane.
The solution was used after being filtered through 0.22 μm sterile filter membrane.
2-aminoanthracene: an appropriate amount of 2-aminoanthracene was weighed and dissolved in DMSO to obtain a solution with a concentration of 30 μg/mL. The solution was used after being filtered through 0.22 μm sterile filter membrane.
The Sprague-Dawley rat liver S9 fraction used in this assay was prepared on May 18, 2012 with Batch No.: 20120518. It was stored in liquid nitrogen and the protein concentration is 20.477 mg/mL, which can be used before May 17, 2014. Sterility test and biological activity detection met the requirements of the assay.
Before use, S9 mixture was formulated under sterile conditions. The formulated volume was determined by operator according to the requirements of the assay. Other solvents were formulated in accordance with the standard operating procedures of the Centre.
0.1 mL test article or control drug solution, 0.5 mL S9 mixture or PBS (pH7.4), and 2.0 mL top medium (containing about 0.05 mM histidine, about 0.05 mM biotin, about 0.6% agar, and about 0.5% NaCl) in sequence, and 0.1 mL bacteria culture solution finally were added into glass test tubes (10 mL). The mixture was rapidly mixed uniformly on a vortex mixer and poured into the surface of the bottom medium. The top medium was spread evenly over the surface of the basal medium by slight rotation.
The plates were placed on a horizontal table until the medium were solidified. Then the plates were inverted and cultured at 37° C. for 48 h (except for the TA102 strain, which was cultured for 72 h). The plates were withdrawn to count the number of visible revertant colonies per plate. The precipitation phenomenon of the test samples was observed when loading and at the end of culture. Three plates were tested for each group under activation and non-activation conditions, respectively.
If the results meet the following one or two criteria, it would be assessed as positive.

EGFR = target: T3, EGFR (Homo sapiens, UniProt P00533); assay: Inhibitory effect on tyrosine kinase activity of EGFR; assay type: biochemical; conditions: EGFR 40 ng/ml, ATP 10 μM, 30 min
T3 construct: purchased Invitrogen Company PV3872
T3 sequence (P00533 25-1210): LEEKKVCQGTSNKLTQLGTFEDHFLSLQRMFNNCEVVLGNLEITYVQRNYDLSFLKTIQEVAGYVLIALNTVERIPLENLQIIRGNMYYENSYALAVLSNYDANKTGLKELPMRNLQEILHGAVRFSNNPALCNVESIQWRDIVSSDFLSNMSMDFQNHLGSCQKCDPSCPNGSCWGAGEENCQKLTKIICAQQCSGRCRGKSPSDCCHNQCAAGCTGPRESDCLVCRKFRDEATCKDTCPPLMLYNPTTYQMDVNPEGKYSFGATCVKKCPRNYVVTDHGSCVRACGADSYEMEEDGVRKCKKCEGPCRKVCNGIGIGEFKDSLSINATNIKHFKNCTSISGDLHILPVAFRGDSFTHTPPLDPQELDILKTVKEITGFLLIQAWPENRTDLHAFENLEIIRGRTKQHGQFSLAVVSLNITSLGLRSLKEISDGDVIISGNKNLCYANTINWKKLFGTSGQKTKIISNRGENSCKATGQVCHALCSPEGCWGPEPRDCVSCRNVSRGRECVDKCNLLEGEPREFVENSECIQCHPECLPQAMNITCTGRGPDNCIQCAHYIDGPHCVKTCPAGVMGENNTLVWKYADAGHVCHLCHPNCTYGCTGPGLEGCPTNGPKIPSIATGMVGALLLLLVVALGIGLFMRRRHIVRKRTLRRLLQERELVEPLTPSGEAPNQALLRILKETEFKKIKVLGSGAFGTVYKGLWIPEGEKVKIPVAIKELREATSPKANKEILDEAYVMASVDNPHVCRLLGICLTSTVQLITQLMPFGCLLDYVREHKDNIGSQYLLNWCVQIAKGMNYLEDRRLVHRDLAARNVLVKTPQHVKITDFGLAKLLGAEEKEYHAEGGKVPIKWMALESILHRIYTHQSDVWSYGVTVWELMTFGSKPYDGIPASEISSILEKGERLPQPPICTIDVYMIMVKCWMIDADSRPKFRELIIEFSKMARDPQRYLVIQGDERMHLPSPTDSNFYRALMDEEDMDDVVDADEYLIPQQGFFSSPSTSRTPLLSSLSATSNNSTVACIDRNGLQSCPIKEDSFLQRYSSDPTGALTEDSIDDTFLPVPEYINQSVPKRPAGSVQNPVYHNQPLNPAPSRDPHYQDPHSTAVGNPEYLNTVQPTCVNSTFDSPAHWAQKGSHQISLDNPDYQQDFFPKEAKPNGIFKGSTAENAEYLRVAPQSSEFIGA
Description: EGFR: Invitrogen Company, Catalogue No. PV3872
pGT (poly(glutamic acid-tyrosine)): Sigma-Aldrich Company, Catalogue No. P0275
The assay method is briefly described as follows.
3.1.1 At 4° C., 96-well microtiter plate was coated with 0.2 mg/mL pGT (as the substrate of enzyme) dissolved in PBS (phosphate buffer) overnight. Unbound pGT was washed away with a washing solution (0.05% Tween −20 in PBS), and the plate was dried in the air at room temperature for 2 h.
3.1.2 The enzyme reaction was performed in 50 μl reaction system containing 50 mM HEPEs (N-(2-hydroxyethyl)piperazine-N′-2-ethanesulfonic acid), pH 7.5, 0.01% BRIJ-35 (polyoxyethylene lauryl ether), 10 mM MgCl2, 1 mM EGTA (ethylene glycol bis(2-aminoethyl ether)tetraacetic acid), with certain concentrations of ATP (adenosine triphosphate) and kinase, and proceeded for 30 min at room temperature. The phosphate group at the terminal of ATP can be transferred to tyrosine residues of pGT by kinase catalysis so as to phosphorylate the tyrosine residues.
3.1.3 A final concentration of 1% SDS (sodium dodecyl sulfate) was added to terminate the reaction. The phosphorylated tyrosine residues were identified using pY-20. HRP at the end of the antibody enabled TMB to take on color. Then equal amount of 2 N H2SO4 was added to terminate the reaction. OD value, which is positively correlated with the phosphorylation degree of tyrosine residues of pGT, was measured at 450 nm
3.2 The concentrations of the kinase and substrate ATP were determined with reference to the literature “Optimization of a LanthaScreen Kinase assay for EGFR (ErbB1)”(https://tools.lifetechnologies.com/content/sfs/manuals/EGFR_LanthaScreen_actity_Europium.pdf), published by Invitrogen Corporation. The selection criteria for the final concentrations are that the concentration of kinase enabling the yield of the product within the linear range of the detection system and the concentration of ATP approching Km (Michaelis constant) value.
3.3.1 An appropriate amount of a compound was dissolved in DMSO (dimethylsulfoxide) to prepare 2 mM stock solution. Then the stock solution was diluted with DMSO to obtain a working solution with a 50-fold concentration of the highest test concentration, and subjected to a 4-fold gradient dilution to obtain seven concentrations in total.
5 μl 10-fold concentration of ATP dissolved in H2O (the concentration of ATP in EGFR assay is 100 μM, and in Her2 assay is 400 μM) was added to initiate the enzyme reaction followed by reaction at room temperature for 30 min
The mean value of inhibition rate and SD (standard deviation) were determined by duplicate wells. A curve with the concentration of the compound as abscissa and being in logarithmic distribution and the mean value of inhibition rate as ordinate was plotted and fitted using four-parameter logistic function.

T1 sequence (P00533 25-1210 L858R): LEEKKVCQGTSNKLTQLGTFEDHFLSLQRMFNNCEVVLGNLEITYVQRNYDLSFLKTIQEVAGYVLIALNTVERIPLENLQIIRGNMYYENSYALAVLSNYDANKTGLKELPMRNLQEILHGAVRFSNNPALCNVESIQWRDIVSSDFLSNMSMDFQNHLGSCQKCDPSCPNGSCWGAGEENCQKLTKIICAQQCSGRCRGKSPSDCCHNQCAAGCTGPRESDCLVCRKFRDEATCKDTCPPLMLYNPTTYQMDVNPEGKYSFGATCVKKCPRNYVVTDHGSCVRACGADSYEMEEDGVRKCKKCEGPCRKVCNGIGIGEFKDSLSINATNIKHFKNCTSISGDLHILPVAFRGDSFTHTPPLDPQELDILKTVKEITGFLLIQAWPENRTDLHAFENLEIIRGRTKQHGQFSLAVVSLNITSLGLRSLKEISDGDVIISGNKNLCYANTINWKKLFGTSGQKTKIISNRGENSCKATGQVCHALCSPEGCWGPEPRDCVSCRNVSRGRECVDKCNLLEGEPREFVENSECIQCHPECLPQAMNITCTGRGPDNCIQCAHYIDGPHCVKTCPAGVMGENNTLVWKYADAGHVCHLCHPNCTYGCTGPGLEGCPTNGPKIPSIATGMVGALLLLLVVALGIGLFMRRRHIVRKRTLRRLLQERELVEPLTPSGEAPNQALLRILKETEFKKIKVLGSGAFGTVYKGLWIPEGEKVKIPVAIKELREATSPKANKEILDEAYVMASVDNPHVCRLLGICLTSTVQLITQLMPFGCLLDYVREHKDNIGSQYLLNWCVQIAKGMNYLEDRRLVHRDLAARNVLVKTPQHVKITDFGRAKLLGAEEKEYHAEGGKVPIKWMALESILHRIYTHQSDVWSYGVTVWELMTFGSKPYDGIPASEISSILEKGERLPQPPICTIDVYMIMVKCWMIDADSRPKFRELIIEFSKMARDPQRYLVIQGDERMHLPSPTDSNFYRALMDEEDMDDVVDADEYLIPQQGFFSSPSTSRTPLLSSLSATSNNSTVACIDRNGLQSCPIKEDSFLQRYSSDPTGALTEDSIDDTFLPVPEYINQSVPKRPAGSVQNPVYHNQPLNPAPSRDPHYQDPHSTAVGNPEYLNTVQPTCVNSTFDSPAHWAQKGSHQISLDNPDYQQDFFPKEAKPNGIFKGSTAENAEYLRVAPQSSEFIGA

COCCOc1cc2ncnc(Nc3ccc(F)c(Cl)c3)c2cc1NC(=O)C=C1CCN(CCOC)CC1.CS(=O)(=O)O [Compound 3, N-[4-(3-chloro-4-fluorophenylamino)-7-(2-methoxyethoxy)quinazolin-6-yl]-2-[1-(2-methoxyethyl)piperidin-4-ylidene]acetamide dimethylsulfonate]
IC50 (EGFR (L858R)): 0.45 nM | IC50 (EGFR (L858R/T790M)): 235 nM | mutagenicity on TA102 strain [1]: no mutagenicity | mutagenicity on TA97 strain [1]: no mutagenicity | mutagenicity on TA98, TA100 and TA1535 strains [1]: no mutagenicity | IC50 (EGFR): 0.4 nM

COCCOc1cc2ncnc(Nc3ccc(F)c(Cl)c3)c2cc1NC(=O)C=C1CCN(CCOC)CC1 [Compound 1, N-[4-(3-chloro-4-fluorophenylamino)-7-(2-methoxyethoxy)quinazolin-6-yl]-2-[1-(2-methoxyethyl)piperidin-4-ylidene]acetamide]
IC50 (EGFR (L858R)): 0.4 nM | IC50 (EGFR (L858R/T790M)): 266 nM | mutagenicity on TA102 strain [1]: no mutagenicity | mutagenicity on TA97 strain [1]: no mutagenicity | mutagenicity on TA98, TA100 and TA1535 strains [1]: no mutagenicity | IC50 (EGFR): 0.4 nM

COCCOc1cc2ncnc(Nc3ccc(F)c(Cl)c3)c2cc1NC(=O)C=C1CCN(CCOC)CC1.Cl.Cl [Compound 2, N-[4-(3-chloro-4-fluorophenylamino)-7-(2-methoxyethoxy)quinazolin-6yl]-2-[1-(2-methoxyethyl)piperidin-4-ylidene]acetamide dihydrochloride]
IC50 (EGFR): 0.5 nM
